How the values were obtained:
[1] = system: C57BL/6J mouse models of anemia induced by cisplatin; test: Improvement of anemia induced by cisplatin administration; type: in vivo; settings: cisplatin-induced anemia mice, po, 20 mg·kg^-1
Procedure: 5. Pharmacodynamic assay
The experimental mice (SPF, […], male) were obtained from SPF (Beijing) Biotechnology Co., Ltd (permit number: SCXK (Jing) 2019-0010). All animal related experiments were conducted under a China Pharmaceutical University (the certification of using the housing facility of laboratory animals: SYXK (Su) 2018 -0019) IACUC approved protocol in compliance with the guide for the care and use of laboratory animals (number: 202013705). […]
Representative compounds and Roxadustat were formulated in normal saline solution. […]
China Pharmaceutical University (ADVIA 2120 hematology system). […]
5.3 Improvement of anemia induced by cisplatin administration
C57BL/6J mice were treated with cisplatin ( po, 7 mg·kg-1) on days 0, 7, 14, and 28 of the experiment. On the 29th day, the animals were randomized into sham, control, and treated groups (n=5). […]
treatment anemia caused by cisplatin. The mice were treated with the compounds every alternate day for 30 days. the test sample is obtained via orbital venous plexus. The hemoglobin of samples was analyzed in the center for new drug safety evaluation and research at China Pharmaceutical University (ADVIA 2120 hematology system).

[2] = molecular target: T1, human prolyl hydroxylase 2 (PHD2) (Homo sapiens, UniProt Q9GZT9); test: Fluorescence polarization (FP) competition assay of PHD2; settings: purified compounds, 20 nM PHD2 (181-426), 30 nM probe, Cheng-Prusoff, mean±SD, read-out: Ki, binding affinity for PHD2
T1 construct: (181-426); made in house
Procedure: 2.1 Fluorescence polarization (FP) competition assay of PHD2 [4]
FP assays were performed using a SPARK Multi-Mode Microplate Reader (Tecan) with excitation and emission filters appropriate for the fluorophore used in the binding experiment. Fluorescence polarization experiments were performed in 384-well, flat bottom, black assay plates (#3575, Corning) in a final volume of 60 µL. The final assay buffer contained: 30 nM fluorescence Probe, 20 nM PHD2 (181-426), 10 mM HEPES, pH 7.4, 150 mM NaCl, 0.05% Tween-20, and at the 1% DMSO (except for DMSO tolerance experiments, in which different DMSO concentrations were used as indicated). All plates measured in fluorescence polarization assays were incubated for a minimum of 30 min at RT. Fluorescence polarization was measured from the top of the well with a Tecan SPARK plate reader with polarized filters and optical modules for fluorescein (λex = 485 nm ± 25 nm, λem = 535 nm ± 25 nm). The standard error of the mean (SEM) values, were calculated by dividing the sample standard deviation by the square root of the sample size and are recorded as ± values for IC 50. Dose-dependent experiments were performed in th e same manner using at least 10 concentrations of the test compounds in 3 -fold serial dilutions from 100 µM. For each assay, negative controls (equivalent to 0% displacement) contained the fluorescent ligand, PHD2 (181 -426), and 20 µL FP buffer; blank cont rols contained only the fluorescent ligand and 40 µL buffer.
The reaction mixtures were incubated at RT for 60 min, then total fluorescence and fluorescence polarization measurements wer e taken. The percentage inhibition was calculated using Equation 1, where mPfree is the signal for the free probe (blank control) and mPbound is the signal for the bound probe (negative control).
IC50s were determined for duplicate measurements by non-linear least-squares analysis using GraphPad Prism 8.0.
The Ki values of the inhibitors were calculated using the Cheng-Prusoff equation.[5] Cheng-Prusoff equation: Ki = IC50 / (1 + [L]/Kd)
The Kd value was determined using a constant concentration of probe and titrating with PHD2 protein at increasing concentrations. [L] represents the concentration of the […] used in the FP assay. […]

T1 sequence (Q9GZT9 181-426): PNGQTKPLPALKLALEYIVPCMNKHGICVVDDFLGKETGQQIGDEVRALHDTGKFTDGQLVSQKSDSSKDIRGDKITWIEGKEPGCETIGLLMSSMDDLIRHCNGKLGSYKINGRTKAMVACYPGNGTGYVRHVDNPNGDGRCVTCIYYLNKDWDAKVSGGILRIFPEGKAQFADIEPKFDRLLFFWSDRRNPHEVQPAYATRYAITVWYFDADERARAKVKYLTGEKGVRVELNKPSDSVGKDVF

melting point	Ki [2]	SMILES	Improvement of anemia (%) [1]
		Cc1nc(C(=O)NCC(=O)O)c(O)c2ccc(Oc3ccccc3)cc12 [Roxadustat, reference compound]	48.5%
> 300 °C	113 ± 5 nM	O=C(N/N=C/c1cccc(O)c1O)c1cnc(-n2cccn2)[nH]c1=O [compound 1]	
> 300 °C	500 ± 16 nM	O=C(N/N=C/c1cccc(O)c1O)c1cnc(-c2ncccn2)[nH]c1=O [compound 4]	
> 300 °C	548 ± 32 nM	O=C(N/N=C/c1cccc(O)c1O)c1cnc(-n2cncn2)[nH]c1=O [compound 5]	
294.7 to 295.2 °C	2620 ± 103 nM	O=C(N/N=C/c1ccc(O)c(O)c1)c1cnc(-c2ccccn2)[nH]c1=O [compound 6]	
> 300 °C	72 ± 5 nM	O=C(N/N=C/c1cc(O)c(O)c(O)c1)c1cnc(-c2ccccn2)[nH]c1=O [compound 7]	
> 300 °C	639 ± 37 nM	O=C(N/N=C/c1ccccc1O)c1cnc(-c2ccccn2)[nH]c1=O [compound 8]	
> 300 °C	483 ± 9 nM	O=C(N/N=C/c1cc(O)ccc1O)c1cnc(-c2ccccn2)[nH]c1=O [compound 9]	
> 300 °C	130 ± 4 nM	O=C(N/N=C/c1ccc(O)c(O)c1O)c1cnc(-c2ccccn2)[nH]c1=O [compound 10]	
	119 ± 9 nM	O=C(O)c1ccccc1/C=N/NC(=O)c1cnc(-c2cccnn2)[nH]c1=O [compound 11]	
> 300 °C	103 ± 4 nM	O=C(O)c1ccc(/C=N/NC(=O)c2cnc(-c3ccccn3)[nH]c2=O)cc1 [compound 12]	
> 300 °C	1050 ± 129 nM	O=C(O)c1ccc(/C=N/NC(=O)c2cnc(-c3ncccn3)[nH]c2=O)cc1 [compound 13]	
> 300 °C	155 ± 18 nM	O=C(O)c1cc(/C=N/NC(=O)c2cnc(-c3cccnn3)[nH]c2=O)ccc1O [compound 14]	
> 300 °C	200 ± 8 nM	O=C(O)c1cc(/C=N/NC(=O)c2cnc(-c3ccccn3)[nH]c2=O)ccc1O [compound 15]	
> 300 °C	116 ± 5 nM	O=C(N/N=C/c1cccc(O)c1Cl)c1cnc(-c2ccccn2)[nH]c1=O [compound 18]	

SMILES	melting point	Ki [2]	Improvement of anemia (%) [1]
O=C(N/N=C/c1cccc(O)c1O)c1cnc(-c2cccnn2)[nH]c1=O [compound 2]		68 ± 6 nM	
O=C(N/N=C/c1cccc(O)c1O)c1cnc(-c2ccccn2)[nH]c1=O [compound 3]	> 300 °C	48 ± 4 nM	
O=C(N/N=C/c1cccc(Cl)c1O)c1cnc(-c2cccnn2)[nH]c1=O [compound 16]	> 300 °C	394 ± 17 nM	

Source: article PMC9827864, “In Situ Inhibitor Synthesis and Screening by Fluorescence Polarization: An Efficient Approach for Accelerating Drug Discovery” (Angewandte Chemie (International Ed. in English), 2022)
